Experimental data: patent publication US8691755B2, “Pegylated C-peptide” (Cebix AB, priority 2010, dated 2014)
Read-outs that look alike come from different tables or passages of the source.

Key:
[1] = Repeated-dose GLP toxicology studies with unmodified C-peptide, continuous s.c. infusion; type: in vivo, Sprague Dawley rat; conditions: for No Observed Effect Level: continuous s.c. infusion; for level at time molar: Sprague Dawley, rat, plasma, sc, read-out: C-peptide Css
Description: (§1) In the five GLP toxicology studies conducted with non-PEGylated C-peptide for up to 4 weeks in rats and 13 weeks in Cynomolgus monkeys, the C-peptide was continuously infused s.c. via implanted osmotic pumps. The plasma concentration of C-peptide was measured periodically throughout the studies and a steady-state concentration (Css) over the duration of exposure has been determined for each study as shown in Table E6.

[2] = as above; type: in vivo, Cynomolgus monkey; conditions: for No Observed Effect Level: continuous s.c. infusion; for level at time molar: cynomolgus monkey, plasma, sc, read-out: C-peptide Css
Description: as §1

[3] = PK of unmodified C-peptide in beagle dogs, single S.C. dose (first PK study)
Description: A pharmacokinetic (PK) study was conducted to determine the C-peptide PK profile with unmodified C-peptide in beagle dogs.
Plasma samples were obtained after centrifugation of the blood (3,000 rpm for 10 minutes) and stored at −80° C. until analysis. […] Results were expressed as C-peptide concentrations. For the PK analysis, the below quantitation level (BQL) was treated as zero and nominal time points were used for all calculations. PK parameters were determined by standard model independent methods based on the individual plasma concentration-time data for each animal using model 200 in WinNonlin Professional 5.2.1 (Pharsight Corp., Mountain View, Calif.).

[4] = both, beagle, dog, plasma, sc, 0.5 mg/kg

Question: What does the source list for `CC(C)C[C@H](NC(=O)[C@H](C)NC(=O)[C@H](CC(C)C)NC(=O)[C@@H]1CCCN1C(=O)[C@H](CCC(N)=O)NC(=O)[C@H](CC(C)C)NC(=O)[C@H](CO)NC(=O)CNC(=O)[C@H](C)NC(=O)CNC(=O)[C@@H]1CCCN1C(=O)CNC(=O)CNC(=O)CNC(=O)[C@H](CC(C)C)NC(=O)[C@H](CCC(=O)O)NC(=O)[C@@H](NC(=O)[C@H](CCC(N)=O)NC(=O)CNC(=O)[C@@H](NC(=O)[C@H](CCC(N)=O)NC(=O)[C@H](CC(C)C)NC(=O)[C@H](CC(=O)O)NC(=O)[C@H](CCC(=O)O)NC(=O)[C@H](C)NC(=O)[C@@H](N)CCC(=O)O)C(C)C)C(C)C)C(=O)N[C@@H](CCC(=O)O)C(=O)NCC(=O)N[C@@H](CO)C(=O)N[C@@H](CC(C)C)C(=O)N[C@@H](CCC(N)=O)C(=O)O` [unmodified C-peptide]?
Answer: No Observed Effect Level ([1]; 4 weeks): 0.5 mg/kg/day; No Observed Effect Level ([1]; 14 days): 2 mg/kg/day; level at time molar ([1]; 0.5 mg/kg/day, 4 weeks at NOEL 0.5 mg/kg/day, mean of days 2, 14, 28): 4.2 nM; level at time molar ([1]; 2 mg/kg/day, 14 days at NOEL 2 mg/kg/day, mean of days 2, 10, 14): 27 nM; No Observed Effect Level ([2]; 13 weeks): 3.6 mg/kg/day; No Observed Effect Level ([2]; 14 days): 2 mg/kg/day; level at time molar ([2]; 13 weeks at NOEL 3.6 mg/kg/day, mean of days 2, 28, 37/38, 56, 91): 40 nM; level at time molar ([2]; 14 days at NOEL 2 mg/kg/day, mean of days 2, 10, 14): 84 nM; AUC(0-t) [3, 4]: 1860 ng·h/mL; Cmax [3, 4]: 757 ng/mL; circulating levels of C-peptide below quantitation level (BQL) ([3]; single S.C. dose 0.5 mg/kg): BQL within half a day; tolerability (clinical abnormalities) ([3]; single S.C. dose 0.5 mg/kg): well tolerated
